ChEMBL document CHEMBL4507264, “Data for DCP probe BAY-7598” (2021)
Activity calls are given as the source filed them. The calls are words filed in the database; no cut-off is given here.

What was measured:
[1] = target: Glycogen synthase kinase-3 beta (Homo sapiens) (UniProt P49841); settings: Compound concentration 1000.0 nM
[2] = target: Serine/threonine-protein kinase PLK4 (Homo sapiens) (UniProt O00444); settings: Compound concentration 1000.0 nM
[3] = target: STE20/SPS1-related proline-alanine-rich protein kinase (Homo sapiens) (UniProt Q9UEW8); settings: Compound concentration 1000.0 nM
[4] = target: Serine/threonine-protein kinase Chk2 (Homo sapiens) (UniProt O96017); settings: Compound concentration 1000.0 nM
[5] = test system: Leucine-rich repeat serine/threonine-protein kinase 2 (Homo sapiens), Q5S007 [G2019S]; settings: Compound concentration 1000.0 nM
[6] = target: Tyrosine-protein kinase Yes (Homo sapiens) (UniProt P07947); settings: Compound concentration 1000.0 nM
[7] = target: Tyrosine-protein kinase TXK (Homo sapiens) (UniProt P42681); settings: Compound concentration 1000.0 nM
Chain of Tyrosine-protein kinase TXK (Homo sapiens) (P42681 whole entry): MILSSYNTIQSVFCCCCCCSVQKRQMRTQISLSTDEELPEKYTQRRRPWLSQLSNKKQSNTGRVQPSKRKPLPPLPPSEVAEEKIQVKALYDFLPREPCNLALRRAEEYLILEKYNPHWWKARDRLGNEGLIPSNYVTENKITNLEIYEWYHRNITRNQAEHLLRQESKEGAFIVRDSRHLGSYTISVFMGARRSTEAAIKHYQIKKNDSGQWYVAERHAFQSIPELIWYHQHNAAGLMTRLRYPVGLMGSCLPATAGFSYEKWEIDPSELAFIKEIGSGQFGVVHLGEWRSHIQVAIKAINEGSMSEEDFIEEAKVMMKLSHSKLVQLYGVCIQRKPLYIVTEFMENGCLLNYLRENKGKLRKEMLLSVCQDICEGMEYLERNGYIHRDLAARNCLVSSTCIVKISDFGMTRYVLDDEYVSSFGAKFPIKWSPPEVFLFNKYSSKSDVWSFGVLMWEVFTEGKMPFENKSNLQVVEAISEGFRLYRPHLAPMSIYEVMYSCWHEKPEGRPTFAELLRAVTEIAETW

[8] = target: Serine/threonine-protein kinase 26 (Homo sapiens) (UniProt Q9P289); settings: Compound concentration 1000.0 nM
[9] = target: Serine/threonine-protein kinase D2 (Homo sapiens) (UniProt Q9BZL6); settings: Compound concentration 1000.0 nM
Chain of Serine/threonine-protein kinase D2 (Homo sapiens) (Q9BZL6 whole entry): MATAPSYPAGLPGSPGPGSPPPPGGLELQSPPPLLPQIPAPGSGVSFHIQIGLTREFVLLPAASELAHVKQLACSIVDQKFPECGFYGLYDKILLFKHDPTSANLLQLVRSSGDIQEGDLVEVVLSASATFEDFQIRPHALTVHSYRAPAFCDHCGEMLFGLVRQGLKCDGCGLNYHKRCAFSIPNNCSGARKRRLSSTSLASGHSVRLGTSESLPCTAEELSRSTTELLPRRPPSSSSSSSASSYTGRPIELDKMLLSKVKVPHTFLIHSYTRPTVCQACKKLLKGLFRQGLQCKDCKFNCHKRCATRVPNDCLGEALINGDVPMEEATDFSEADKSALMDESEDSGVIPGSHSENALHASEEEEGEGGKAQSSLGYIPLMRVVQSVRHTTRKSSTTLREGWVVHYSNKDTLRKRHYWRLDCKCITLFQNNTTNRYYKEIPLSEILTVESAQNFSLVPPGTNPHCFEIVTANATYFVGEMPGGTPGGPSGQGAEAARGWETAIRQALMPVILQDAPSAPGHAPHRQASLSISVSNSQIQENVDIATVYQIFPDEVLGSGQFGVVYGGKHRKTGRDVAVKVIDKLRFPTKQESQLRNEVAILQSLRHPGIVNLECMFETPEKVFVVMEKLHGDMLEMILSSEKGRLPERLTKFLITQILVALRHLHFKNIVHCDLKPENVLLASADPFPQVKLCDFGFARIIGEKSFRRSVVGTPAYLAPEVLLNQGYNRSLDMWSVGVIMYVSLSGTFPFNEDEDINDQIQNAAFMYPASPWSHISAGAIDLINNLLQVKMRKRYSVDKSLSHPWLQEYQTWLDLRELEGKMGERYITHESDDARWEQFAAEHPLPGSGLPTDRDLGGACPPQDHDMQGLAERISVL

[10] = target: Vascular endothelial growth factor receptor 2 (Homo sapiens) (UniProt P35968); settings: Compound concentration 1000.0 nM
[11] = target: Myosin-IIIa (Homo sapiens) (UniProt Q8NEV4); settings: Compound concentration 1000.0 nM
[12] = target: Alpha-2A adrenergic receptor (Homo sapiens) (UniProt P08913); settings: Compound concentration 10.0 uM
[13] = target: Receptor-type tyrosine-protein kinase FLT3 (Homo sapiens) (UniProt P36888); settings: Compound concentration 1000.0 nM
[14] = target: Fibroblast growth factor receptor 1 (Homo sapiens) (UniProt P11362); settings: Compound concentration 1000.0 nM
[15] = target: SRSF protein kinase 3 (Homo sapiens) (UniProt Q9UPE1); settings: Compound concentration 1000.0 nM
[16] = target: Platelet-derived growth factor receptor beta (Homo sapiens) (UniProt P09619); settings: Compound concentration 1000.0 nM
[17] = test system: Mast/stem cell growth factor receptor Kit (Homo sapiens), P10721 [D816V]; settings: Compound concentration 1000.0 nM
Chain of Mast/stem cell growth factor receptor Kit (Homo sapiens), P10721 [D816V] (P10721 whole entry D816V): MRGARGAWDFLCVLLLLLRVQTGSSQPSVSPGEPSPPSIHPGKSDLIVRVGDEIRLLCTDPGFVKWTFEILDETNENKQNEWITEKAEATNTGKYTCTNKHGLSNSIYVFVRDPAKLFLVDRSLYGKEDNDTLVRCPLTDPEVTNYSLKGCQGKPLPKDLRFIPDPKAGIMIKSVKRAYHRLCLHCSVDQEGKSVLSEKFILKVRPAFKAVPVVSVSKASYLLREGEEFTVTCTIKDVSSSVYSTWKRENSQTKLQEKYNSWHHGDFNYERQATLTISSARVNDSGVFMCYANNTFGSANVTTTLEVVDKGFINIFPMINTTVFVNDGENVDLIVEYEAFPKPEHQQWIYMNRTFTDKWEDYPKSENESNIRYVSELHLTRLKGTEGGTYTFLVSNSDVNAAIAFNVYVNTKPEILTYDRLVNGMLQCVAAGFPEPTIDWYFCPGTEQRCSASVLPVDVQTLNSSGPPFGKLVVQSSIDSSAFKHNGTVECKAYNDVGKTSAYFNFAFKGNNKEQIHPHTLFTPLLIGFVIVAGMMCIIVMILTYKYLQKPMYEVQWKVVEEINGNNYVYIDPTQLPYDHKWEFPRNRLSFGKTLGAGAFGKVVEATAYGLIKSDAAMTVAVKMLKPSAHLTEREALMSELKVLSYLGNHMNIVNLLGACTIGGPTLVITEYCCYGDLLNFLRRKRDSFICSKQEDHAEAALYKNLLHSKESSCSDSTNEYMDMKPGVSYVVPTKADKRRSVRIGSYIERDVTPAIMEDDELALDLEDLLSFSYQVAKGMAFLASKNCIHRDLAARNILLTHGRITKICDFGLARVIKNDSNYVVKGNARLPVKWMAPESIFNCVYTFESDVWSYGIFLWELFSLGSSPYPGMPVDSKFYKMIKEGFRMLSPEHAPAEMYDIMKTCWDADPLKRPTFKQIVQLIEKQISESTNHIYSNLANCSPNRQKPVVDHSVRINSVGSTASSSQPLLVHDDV

[18] = target: Protein kinase C iota type (Homo sapiens) (UniProt P41743); settings: Compound concentration 1000.0 nM
[19] = target: Mitogen-activated protein kinase kinase kinase 14 (Homo sapiens) (UniProt Q99558); settings: Compound concentration 1000.0 nM
[20] = target: Serine/threonine-protein kinase MAK (Homo sapiens) (UniProt P20794); settings: Compound concentration 1000.0 nM
[21] = target: Focal adhesion kinase 1 (Homo sapiens) (UniProt Q05397); settings: Compound concentration 1000.0 nM
[22] = target: Vascular endothelial growth factor receptor 1 (Homo sapiens) (UniProt P17948); settings: Compound concentration 1000.0 nM
Chain of Vascular endothelial growth factor receptor 1 (Homo sapiens) (P17948 whole entry): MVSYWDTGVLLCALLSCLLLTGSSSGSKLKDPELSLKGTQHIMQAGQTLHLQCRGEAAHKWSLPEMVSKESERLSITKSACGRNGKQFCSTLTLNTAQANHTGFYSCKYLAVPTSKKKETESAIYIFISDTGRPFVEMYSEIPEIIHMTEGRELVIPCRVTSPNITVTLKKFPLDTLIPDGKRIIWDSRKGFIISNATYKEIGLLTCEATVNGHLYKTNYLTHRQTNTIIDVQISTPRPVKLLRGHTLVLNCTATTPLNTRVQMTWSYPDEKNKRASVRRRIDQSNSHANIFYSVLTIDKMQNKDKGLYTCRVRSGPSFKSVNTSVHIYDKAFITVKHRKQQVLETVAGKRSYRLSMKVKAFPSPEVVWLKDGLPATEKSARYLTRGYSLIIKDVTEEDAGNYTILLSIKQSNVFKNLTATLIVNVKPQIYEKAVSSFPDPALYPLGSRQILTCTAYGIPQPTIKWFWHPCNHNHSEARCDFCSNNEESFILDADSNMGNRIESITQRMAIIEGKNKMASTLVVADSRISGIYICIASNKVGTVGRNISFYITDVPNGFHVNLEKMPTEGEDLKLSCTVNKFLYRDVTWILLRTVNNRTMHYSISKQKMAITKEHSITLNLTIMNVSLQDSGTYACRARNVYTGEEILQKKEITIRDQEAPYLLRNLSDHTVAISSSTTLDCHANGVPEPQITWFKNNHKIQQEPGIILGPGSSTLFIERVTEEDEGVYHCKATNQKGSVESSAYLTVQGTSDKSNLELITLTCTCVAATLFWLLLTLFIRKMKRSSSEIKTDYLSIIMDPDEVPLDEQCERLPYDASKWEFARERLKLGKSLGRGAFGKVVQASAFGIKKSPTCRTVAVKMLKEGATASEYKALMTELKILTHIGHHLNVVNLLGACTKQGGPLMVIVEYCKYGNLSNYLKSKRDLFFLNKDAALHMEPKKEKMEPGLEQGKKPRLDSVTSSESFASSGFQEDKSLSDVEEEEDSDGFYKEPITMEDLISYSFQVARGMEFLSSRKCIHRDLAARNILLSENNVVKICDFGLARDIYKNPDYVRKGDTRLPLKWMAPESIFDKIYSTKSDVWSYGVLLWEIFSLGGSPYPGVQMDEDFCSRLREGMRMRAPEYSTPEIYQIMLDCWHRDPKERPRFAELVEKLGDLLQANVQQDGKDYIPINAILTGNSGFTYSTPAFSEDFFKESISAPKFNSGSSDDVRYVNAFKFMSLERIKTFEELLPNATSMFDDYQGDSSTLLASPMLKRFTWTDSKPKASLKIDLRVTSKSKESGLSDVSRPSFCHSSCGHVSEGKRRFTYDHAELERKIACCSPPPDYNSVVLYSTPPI

[23] = target: Serine/threonine-protein kinase MRCK alpha (Homo sapiens) (UniProt Q5VT25); settings: Compound concentration 1000.0 nM
[24] = target: Aurora kinase A (Homo sapiens) (UniProt O14965); settings: Compound concentration 1000.0 nM
[25] = target: Serine/threonine-protein kinase WNK4 (Homo sapiens) (UniProt Q96J92); settings: Compound concentration 1000.0 nM
[26] = target: Eukaryotic translation initiation factor 2-alpha kinase 1 (Homo sapiens) (UniProt Q9BQI3); settings: Compound concentration 1000.0 nM
[27] = target: D(3) dopamine receptor (Homo sapiens) (UniProt P35462); settings: Compound concentration 10.0 uM
[28] = target: Dual specificity protein kinase CLK3 (Homo sapiens) (UniProt P49761); settings: Compound concentration 1000.0 nM
[29] = target: Receptor-interacting serine/threonine-protein kinase 1 (Homo sapiens) (UniProt Q13546); settings: Compound concentration 1000.0 nM
[30] = target: Transient receptor potential cation channel subfamily M member 6 (Homo sapiens) (UniProt Q9BX84); settings: Compound concentration 1000.0 nM
[31] = target: Dual specificity mitogen-activated protein kinase kinase 2 (Homo sapiens) (UniProt P36507); settings: Compound concentration 1000.0 nM
[32] = target: Macrophage metalloelastase (Homo sapiens, UniProt P39900); assay: Biochemical assay (MMP12)
[33] = target: cGMP-dependent protein kinase 2 (Homo sapiens) (UniProt Q13237); settings: Compound concentration 1000.0 nM
[34] = target: Cyclin-dependent kinase 16 (Homo sapiens) (UniProt Q00536); settings: Compound concentration 1000.0 nM
[35] = target: Serine/threonine-protein kinase SIK1 (Homo sapiens) (UniProt P57059); settings: Compound concentration 1000.0 nM
[36] = target: Serine/threonine-protein kinase 10 (Homo sapiens) (UniProt O94804); settings: Compound concentration 1000.0 nM
[37] = target: Cyclin-dependent kinase 8 (Homo sapiens) (UniProt P49336); settings: Compound concentration 1000.0 nM
[38] = target: Ephrin type-B receptor 4 (Homo sapiens) (UniProt P54760); settings: Compound concentration 1000.0 nM
[39] = test system: Phosphatidylinositol 4,5-bisphosphate 3-kinase catalytic subunit alpha isoform (Homo sapiens), P42336 [C420R]; settings: Compound concentration 1000.0 nM
[40] = target: Mitogen-activated protein kinase 6 (Homo sapiens) (UniProt Q16659); settings: Compound concentration 1000.0 nM
Chain of Mitogen-activated protein kinase 6 (Homo sapiens) (Q16659 whole entry): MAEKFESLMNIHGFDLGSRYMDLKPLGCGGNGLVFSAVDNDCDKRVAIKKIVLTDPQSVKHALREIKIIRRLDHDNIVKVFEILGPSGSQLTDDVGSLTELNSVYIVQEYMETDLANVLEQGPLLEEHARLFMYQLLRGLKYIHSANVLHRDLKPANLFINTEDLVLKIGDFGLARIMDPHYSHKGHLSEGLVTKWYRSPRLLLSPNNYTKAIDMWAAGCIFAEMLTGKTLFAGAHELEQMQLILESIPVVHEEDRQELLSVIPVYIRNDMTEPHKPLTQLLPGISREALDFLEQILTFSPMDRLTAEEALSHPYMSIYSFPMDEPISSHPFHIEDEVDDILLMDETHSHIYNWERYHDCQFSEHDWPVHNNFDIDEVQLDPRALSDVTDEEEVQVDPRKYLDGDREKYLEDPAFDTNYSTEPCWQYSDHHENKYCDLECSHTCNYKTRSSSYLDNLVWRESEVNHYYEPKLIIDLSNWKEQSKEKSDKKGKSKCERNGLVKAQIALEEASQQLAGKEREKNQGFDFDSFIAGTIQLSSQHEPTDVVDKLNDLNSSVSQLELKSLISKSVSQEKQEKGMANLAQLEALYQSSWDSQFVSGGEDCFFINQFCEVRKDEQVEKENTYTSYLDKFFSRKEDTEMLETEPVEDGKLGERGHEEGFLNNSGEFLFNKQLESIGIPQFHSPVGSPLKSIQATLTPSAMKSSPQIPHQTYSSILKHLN

[41] = target: RAF proto-oncogene serine/threonine-protein kinase (Homo sapiens) (UniProt P04049); settings: Compound concentration 1000.0 nM
[42] = target: Tyrosine-protein kinase FRK (Homo sapiens) (UniProt P42685); settings: Compound concentration 1000.0 nM
[43] = target: Mitogen-activated protein kinase kinase kinase 12 (Homo sapiens) (UniProt Q12852); settings: Compound concentration 1000.0 nM
[44] = target: Mitogen-activated protein kinase kinase kinase 6 (Homo sapiens) (UniProt O95382); settings: Compound concentration 1000.0 nM
[45] = target: Proto-oncogene tyrosine-protein kinase receptor Ret (Homo sapiens) (UniProt P07949); settings: Compound concentration 1000.0 nM

Chain of Glycogen synthase kinase-3 beta (Homo sapiens) (P49841 whole entry, looked up): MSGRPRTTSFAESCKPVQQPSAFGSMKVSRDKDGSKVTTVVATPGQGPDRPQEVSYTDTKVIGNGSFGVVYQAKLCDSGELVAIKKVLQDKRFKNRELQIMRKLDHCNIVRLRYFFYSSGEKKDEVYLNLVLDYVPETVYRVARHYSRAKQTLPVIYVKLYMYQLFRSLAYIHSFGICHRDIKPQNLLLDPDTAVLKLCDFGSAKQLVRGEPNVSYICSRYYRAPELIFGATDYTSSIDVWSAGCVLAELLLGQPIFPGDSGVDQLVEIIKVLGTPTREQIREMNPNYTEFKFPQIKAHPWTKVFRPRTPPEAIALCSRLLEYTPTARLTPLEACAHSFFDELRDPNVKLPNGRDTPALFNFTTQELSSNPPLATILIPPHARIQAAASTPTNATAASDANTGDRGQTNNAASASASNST

O=C(O)[C@@H]1[C@@H](Cn2nnc3ccccc3c2=O)CC[C@H]1C(=O)c1ccc(OCCC2CCOCC2)cc1 [BAY-694]
residual activity [1]: 100% | residual activity [2]: 83% | residual activity [3]: 96% | residual activity [4]: 100% | residual activity [5]: 100% | residual activity [6]: 100% | residual activity [7]: 94% | residual activity [8]: 100% | residual activity [9]: 73% | residual activity [10]: 78% | residual activity [11]: 93% | inhibition [12]: 5.09% | residual activity [13]: 100% | residual activity [14]: 100% | residual activity [15]: 100% | residual activity [16]: 100% | residual activity [17]: 98% | residual activity [18]: 100% | residual activity [19]: 100% | residual activity [20]: 78% | residual activity [21]: 100% | residual activity [22]: 100% | residual activity [23]: 91% | residual activity [24]: 100% | residual activity [25]: 75% | residual activity [26]: 100% | inhibition [27]: -4.94% | residual activity [28]: 91% | residual activity [29]: 100% | residual activity [30]: 96% | residual activity [31]: 100% | IC50 [32]: 80 nM (not active) | residual activity [33]: 100% | residual activity [34]: 100% | residual activity [35]: 91% | residual activity [36]: 84% | residual activity [37]: 91% | residual activity [38]: 100% | residual activity [39]: 100% | residual activity [40]: 100% | residual activity [41]: 100% | residual activity [42]: 89% | residual activity [43]: 98% | residual activity [44]: 79% | residual activity [45]: 100%

O=C(O)[C@H]1[C@H](Cn2nnc3ccccc3c2=O)CC[C@@H]1C(=O)c1ccc(OCCC2CCOCC2)cc1 [BAY-7598]
residual activity [1]: 100% | residual activity [2]: 97% | residual activity [3]: 95% | residual activity [4]: 100% | residual activity [5]: 100% | residual activity [6]: 100% | residual activity [7]: 100% | residual activity [8]: 87% | residual activity [9]: 73% | residual activity [10]: 88% | residual activity [11]: 100% | inhibition [12]: -5.14% | residual activity [13]: 99% | residual activity [14]: 98% | residual activity [15]: 84% | residual activity [16]: 88% | residual activity [17]: 97% | residual activity [18]: 66% | residual activity [19]: 85% | residual activity [20]: 95% | residual activity [21]: 89% | residual activity [22]: 96% | residual activity [23]: 100% | residual activity [24]: 97% | residual activity [25]: 91% | residual activity [26]: 78% | inhibition [27]: 7.27% | residual activity [28]: 100% | residual activity [29]: 84% | residual activity [30]: 100% | residual activity [31]: 100% | IC50 [32]: 0.085 nM (active) | residual activity [33]: 100% | residual activity [34]: 98% | residual activity [35]: 100% | residual activity [36]: 100% | residual activity [37]: 100% | residual activity [38]: 96% | residual activity [39]: 100% | residual activity [40]: 90% | residual activity [41]: 91% | residual activity [42]: 100% | residual activity [43]: 88% | residual activity [44]: 91% | residual activity [45]: 82%
